Experiment [1] deals with T1, mouse TRPA1 (Mus musculus, UniProt Q8BLA8).
T1 construct: expressed in transfected cells; host or cells: CHO cells (tetracycline-induced for PatchXpress; mTRPA1-pcDNA5 named for the transient labelling experiment)
The experiment is described as follows: Whole-cell electrophysiology of TRPA1-expressing CHO cells (pressure, hyperosmolarity, cold). The format is cell-based. As to conditions: for block of TRPA1 currents in response to hyperosmolarity: bath application, 2 min stimulus. The source says:
We tested if TRPA1 is activated by mechanical forces. The electrophysiological behavior of thermoTRP-expressing Chinese Hamster Ovary (CHO) cells was investigated with two different assays of mechanical stress—pressure application using the recording pipette and changes in external osmolarity.
(§1) Mechanosensory neurons are often classified as high- or low-threshold, characterizing responses to pain and touch, respectively. We tested the mechanical threshold of TRPA1 by applying a wide range of negative pipette pressures (FIG. 1C). TRPA1-expressing CHO cells are activated at −90 mmHg or higher, consistent with native high-threshold mechanical receptors involved in sensing pain (Cho et al., J Neurosci 22:1238, 2002). […] Gadolinium (Gd^3+) is considered a blocker of native mechanically-gated ion channels in animal tissues (Martinac et al., Physiol Rev 81:685, 2001). […] FM1-43 is a styryl dye that specifically labels sensory cells by entering through open transduction channels. […] Furthermore, it was observed that 10 μM of FM1 -43 was able to block cinnamaldehyde-induced currents in TRPA1-expressing CHO cells (n=8).
(§2) To ensure that the mechanical response we observe is not an artifact of heterologous expression system, we tested if native TRPA1-expressing neurons also respond to such stimuli. 5/6 cinnamaldehyde-sensitive (presumptive TRPA1-expressing) DRG neurons responded to an application of −200 mmHg of suction, while 0/21 cinnamaldehyde insensitive neurons responded (16 of 21 were capsaicin-sensitive) (FIG. 2B). Millimolar camphor was recently reported to inhibit basal currents and cold or agonist-activation of TRPA1.
Mammalian cell electrophysiology: ThermoTRP-expressing CHO cells (rat TRPV1, rat TRPV2, mouse TRPV3, rat TRPV4, mouse TRPM8, and mouse TRPA1), control CHO cells, and cultured rat DRG neurons were prepared as described in Story et al., Cell 112:819, 2003; and Bandell et al., Neuron 41:849, 2004. Electrophysiological recordings were performed as described in Bandell et al., Neuron 41:849, 2004. Briefly, CHO cells were clamped at −60 mV and 0.8 second ramps from −80 mV to +80 mV were run every 4 seconds. Currents from DRG neurons were recorded at −60 mV and for their current-voltage curve, 300 ms voltage step at +20 mV was used 40 ms before 800 ms ramp from -80 mV to +80 mV to minimize contamination of voltage gated Na^+ or Ca^2+ current. The pipette solution for temperature and hyperosmotic experiments consisted of (in mM) 140 CsCl, 5 EGTA, 10 HEPES, 2 MgATP, 0.2 NaGTP, titrated to pH 7.4 with CsOH. The base external solution for these experiments consisted of (in mM) 140 NaCl, 5KCl, 10 HEPES, 2CaCl2, 1MgCl2, titrated to pH 7.4 with NaOH. Mannitol was used to adjust osmolarity for hypertonic solutions. For mouse TRPV3 and rat TRPV2, external calcium was replaced with 5 mM EGTA. Gluconate was substituted for chloride in (±)-pressure and hypotonic experiments to eliminate the potential for endogenous swelling-activated chloride currents. For these experiments, pipette solution (295 mOsm) consisted of (in mM) 125 Cs-gluconate, 15CsCl, 5 EGTA, 10 HEPES, 2 MgATP, 0.2NaGTP, titrated to pH 7.4 with CsOH. The external solution consisted of (in mM) 90 Na-gluconate, 10 NaCl, 5 K-gluconate, 10 HEPES, 2 CaCl2, 1 MgCl2, titrated to pH 7.4 with NaOH. Osmolarity was adjusted with mannitol to 220 mOsm (hypotonic) or 298 mOsm 15 (isotonic). (±)-Pressure was hydrostatically delivered by the recording pipette using syringe pumping (Hamill et al., Annu Rev Physiol 59:621, 1997) and monitored through Pressure Monitor (World Precision Instruments). Warner temperature controller (TC-324B and CL-100) was used for the heating or cooling the perfused bath solutions. […] The number of cells (n) tested with -100 mmHg to −300 mmHg, ˜+100 mmHg, 450 mOsm, and 220 mOsm for each cell type, respectively, are: CHO cells, n=7, 14, 5, 12; TRPV1, n=6, 5, 7, 5; TRPV2, n=4, 5, 3, 5; TRPV3, n=3, 2, 3, 0; TRPM8, n=12, 4, 10, 0. […]

The subject of experiment [2] is BK-induced nociceptive mechanical behaviours. Briefly: Bradykinin-induced mechanical hyperalgesia (Von Frey threshold). Type of experiment: in vivo. The following applies: short term hyperalgesia model, 1 mM coinjected, mice.
Procedure: (§3) Red symbols represent responses from CFA-injected (A), or BK-injected (B) hindpaws while blue symbols represent responses from the other noninjected hindpaws of the same animals. Circles represent responses upon compound 18 treatment, whereas triangles represent responses upon vehicle treatments (A-C). Von Frey thresholds are measured and averaged. (***p<0.001, *p<0.05, two-tailed Student's T-test). […] Red symbols represent responses from CFA-injected hindpaws while blue symbols represent responses from the other non-injected hindpaws of the same animals. Number of flicks, licks, paw raises for 10 min at each time point are counted and averaged (n=8, *p<0.05, two-tailed Student's T-test).
Behavioral assays: Mice (C57B16 Mus musculus) of 8-10 weeks in age and 150-250 g Sprague Dawley rats were used for all behavioral assays. Animals were acclimated for 20-60 min to their testing environment prior to all experiments. Students' T test was used for all statistical calculations. All error bars represent standard error of the mean (SEM). Thermal plates, Hargreaves method (Plantar Analgesia meter) and Von Frey apparatus (Dynamic Plantar Aesthesiometer) were from UGO Basile and Columbus instruments. […] Baseline responses were measured first and then 10 nM BK was injected to the skin of left hindpaws. Von Frey threshold or paw withdrawal latency was measured at 5, 15 and 30 min post injection. […]
The test system of experiment [3] is TRPV1, TRPV2, TRPV3, TRPV4, or TRPM8. The experiment is described as follows: Effect on other thermoTRPs (summary statement). The format is cell-based. The text has this:
TRPA1 inhibitors that can be employed in the practice of the present invention include compounds that interferes with the expression, modification, regulation or activation of TRPA1, or compounds that down-regulates one or more of the normal biological activities of TRPA1 (e.g., its ion channel). […] Various TRPA1-specific antagonists can be used in the instant invention. Some of these TRPA1-specific inhibitors are identified by the present inventors, as described in the Examples below. These compounds can be obtained commercially or are otherwise described in the art. One such compound is Compound 18, (Z)-4-(4-chlorophynyl)-3-methylbut-3-en-2-oxime. This compound can be obtained commercially from Maybridge (Cornwall, UK). Another example is Compound 40, N,N′-Bis-(2-hydroxybenzyl)-2,5-diamino-2,5-dimethylhexane, which has been described in U.S. Pat. No. 4,129,556. […] Thus, these two compounds can be readily used to treat or alleviate mechanical hyperalgesia as described in more detail below.

Experiment [4] concerns CFA-induced mechanical hyperalgesia. Briefly: CFA-induced mechanical hyperalgesia (Von Frey threshold). The format is in vivo. As to conditions: injected into hindpaw 24 hours after CFA, mice.
Procedure: as §3
(§4) Behavioral assays: Mice (C57B16 Mus musculus) of 8-10 weeks in age and 150-250 g Sprague Dawley rats were used for all behavioral assays. Animals were acclimated for 20-60 min to their testing environment prior to all experiments. Students' T test was used for all statistical calculations. All error bars represent standard error of the mean (SEM). Thermal plates, Hargreaves method (Plantar Analgesia meter) and Von Frey apparatus (Dynamic Plantar Aesthesiometer) were from UGO Basile and Columbus instruments. […] Briefly, mice were acclimated for 60 min to their testing environment prior to all experiments. Baseline responses were measured first and then 10 nM BK was injected to the skin of left hindpaws. Von Frey threshold or paw withdrawal latency was measured at 5, 15 and 30 min post injection. 1 mM of compound 18 was sometimes coinjected to left hindpaws to test its analgesic effect. For CFA-induced hyperalgesia test, 5 μg CFA in 10 uL was injected into mice (Caterina et al., Science 288:306, 2000; and Cao et al., Nature 392:390, 1998) and 50 μg in 100 uL (1:1 emulsion of mineral oil and saline; Obata et al., J Clin Invest 115:2393, 2005) was injected into rats and in 24 hrs measurements were performed. Before the measurement, the animals were re-acclimated to the environment for 20-60 min. […]
Experiment [5] has as its target T2, TRPA1 (Homo sapiens, UniProt O75762). The experiment is described as follows: TRPA1 block, test not specified. As to conditions: summary statement.
Target sequence in this assay (O75762 whole entry, species assumed): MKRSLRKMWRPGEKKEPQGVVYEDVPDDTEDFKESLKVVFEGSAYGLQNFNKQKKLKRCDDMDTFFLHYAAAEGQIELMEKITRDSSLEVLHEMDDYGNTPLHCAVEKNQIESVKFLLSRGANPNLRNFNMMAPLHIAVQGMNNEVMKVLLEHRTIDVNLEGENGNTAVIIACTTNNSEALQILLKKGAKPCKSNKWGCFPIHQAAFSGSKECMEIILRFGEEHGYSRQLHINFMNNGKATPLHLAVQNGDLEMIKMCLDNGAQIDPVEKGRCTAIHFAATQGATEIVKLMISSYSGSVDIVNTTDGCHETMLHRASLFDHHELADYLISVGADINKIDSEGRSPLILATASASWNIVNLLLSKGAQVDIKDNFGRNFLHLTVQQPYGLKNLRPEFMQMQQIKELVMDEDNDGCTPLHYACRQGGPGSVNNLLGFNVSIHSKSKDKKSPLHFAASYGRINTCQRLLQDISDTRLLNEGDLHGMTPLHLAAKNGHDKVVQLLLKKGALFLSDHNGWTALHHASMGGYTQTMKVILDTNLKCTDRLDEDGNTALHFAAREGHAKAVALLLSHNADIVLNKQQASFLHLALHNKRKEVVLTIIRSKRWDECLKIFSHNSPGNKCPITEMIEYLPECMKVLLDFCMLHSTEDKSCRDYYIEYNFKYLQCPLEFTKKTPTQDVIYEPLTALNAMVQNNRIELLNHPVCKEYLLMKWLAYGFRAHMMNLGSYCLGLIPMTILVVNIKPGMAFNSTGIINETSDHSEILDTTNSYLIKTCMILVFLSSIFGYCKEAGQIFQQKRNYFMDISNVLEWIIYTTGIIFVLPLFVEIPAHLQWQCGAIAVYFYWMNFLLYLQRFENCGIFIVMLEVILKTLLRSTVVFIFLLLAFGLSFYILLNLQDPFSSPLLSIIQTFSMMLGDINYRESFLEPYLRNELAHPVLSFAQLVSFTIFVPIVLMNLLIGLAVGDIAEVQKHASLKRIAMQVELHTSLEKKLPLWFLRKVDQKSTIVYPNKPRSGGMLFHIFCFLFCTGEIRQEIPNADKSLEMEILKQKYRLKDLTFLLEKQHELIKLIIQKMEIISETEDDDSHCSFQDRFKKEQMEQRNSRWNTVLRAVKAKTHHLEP
Experiment [6] concerns bradykinin (BK)-induced heat hyperalgesia. The experiment is described as follows: Bradykinin-induced heat hyperalgesia. The format is in vivo. The following applies: mice.
Procedure: as §3, §4
Experiment [7] deals with CFA-induced heat hyperalgesia. Briefly: CFA-induced heat hyperalgesia. Type of experiment: in vivo. The following applies: mice.
Another experiment deals with cultured rat DRG neurons. The experiment is described as follows: Current response of cultured DRG neurons to negative pressure. Type of experiment: cell-based. As to conditions: 2 mM camphor, −150 mmHg.
Source text: as §2
Mammalian cell electrophysiology: ThermoTRP-expressing CHO cells (rat TRPV1, rat TRPV2, mouse TRPV3, rat TRPV4, mouse TRPM8, and mouse TRPA1), control CHO cells, and cultured rat DRG neurons were prepared as described in Story et al., Cell 112:819, 2003; and Bandell et al., Neuron 41:849, 2004. Electrophysiological recordings were performed as described in Bandell et al., Neuron 41:849, 2004. […] Currents from DRG neurons were recorded at −60 mV and for their current-voltage curve, 300 ms voltage step at +20 mV was used 40 ms before 800 ms ramp from -80 mV to +80 mV to minimize contamination of voltage gated Na^+ or Ca^2+ current. […] (±)-Pressure was hydrostatically delivered by the recording pipette using syringe pumping (Hamill et al., Annu Rev Physiol 59:621, 1997) and monitored through Pressure Monitor (World Precision Instruments). […]

In a further experiment the target is T3, mTRPA1 (Mus musculus, UniProt Q8BLA8).
T3 construct: expressed in transfected cells; host or cells: CHO cells (tetracycline-induced for PatchXpress; mTRPA1-pcDNA5 named for the transient labelling experiment)
T3 sequence (Q8BLA8 whole entry): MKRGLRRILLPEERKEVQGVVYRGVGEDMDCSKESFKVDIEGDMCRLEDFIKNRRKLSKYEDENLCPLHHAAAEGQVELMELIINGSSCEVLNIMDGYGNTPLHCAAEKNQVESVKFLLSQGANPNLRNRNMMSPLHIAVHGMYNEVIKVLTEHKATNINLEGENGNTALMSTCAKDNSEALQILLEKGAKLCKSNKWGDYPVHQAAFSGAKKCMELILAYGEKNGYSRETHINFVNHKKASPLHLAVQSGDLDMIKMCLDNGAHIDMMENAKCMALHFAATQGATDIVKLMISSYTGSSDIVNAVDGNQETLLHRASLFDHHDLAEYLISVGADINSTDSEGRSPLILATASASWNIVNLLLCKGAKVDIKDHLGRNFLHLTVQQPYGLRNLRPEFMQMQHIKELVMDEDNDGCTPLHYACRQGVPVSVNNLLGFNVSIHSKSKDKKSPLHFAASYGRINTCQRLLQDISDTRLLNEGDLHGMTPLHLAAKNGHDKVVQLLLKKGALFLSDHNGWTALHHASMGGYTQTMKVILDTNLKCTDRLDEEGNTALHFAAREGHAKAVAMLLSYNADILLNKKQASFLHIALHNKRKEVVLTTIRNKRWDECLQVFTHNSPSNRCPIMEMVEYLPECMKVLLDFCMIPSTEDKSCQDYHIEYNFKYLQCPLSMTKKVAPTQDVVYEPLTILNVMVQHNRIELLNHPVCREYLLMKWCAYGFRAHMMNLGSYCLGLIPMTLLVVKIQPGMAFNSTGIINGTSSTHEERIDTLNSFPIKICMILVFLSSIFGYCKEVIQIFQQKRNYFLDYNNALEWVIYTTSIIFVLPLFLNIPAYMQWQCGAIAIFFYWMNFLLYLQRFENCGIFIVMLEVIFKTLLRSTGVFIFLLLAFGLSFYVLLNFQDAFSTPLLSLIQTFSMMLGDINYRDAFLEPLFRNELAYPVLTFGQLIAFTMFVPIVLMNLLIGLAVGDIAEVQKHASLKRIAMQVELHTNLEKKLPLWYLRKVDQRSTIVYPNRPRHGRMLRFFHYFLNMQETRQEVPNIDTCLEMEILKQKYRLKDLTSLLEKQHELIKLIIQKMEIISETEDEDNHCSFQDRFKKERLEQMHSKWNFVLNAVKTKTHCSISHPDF
Briefly: PatchXpress whole cell patch clamp, cinnamaldehyde-elicited current, CHO cells. The format is cell-based.
Source text: as §1
FM1-43 experiments: The FM1-43 labeling of CHO cells transfected with mTRPA1 was performed as described (Meyers et al., J Neurosci 23:4054, 2003). Briefly, CHO cells were transfected using Fugene (Roche) with mTRPA1-pcDNA5. For mock transfection CHO cells were treated with Fugene, but without any plasmid DNA. 24 hrs after transfection the cells were incubated for 5 min with 200 μM cinnamaldehyde in physiological buffer (consisted of (in mM) 130 NaCl, 3 KCl, 2 MgCl2, 2 CaCl2, 10 HEPES, 10 glucose) at room temperature, followed by 3 min with 10 μM of FM1-43. The cells were then washed thoroughly and imaged. mTRPA1 and hTRPA1-expressing CHO cells were tested in whole cell patch clamp configuration using the PatchXpress (Axon Instruments) for the effect of the FM143 dye on TRPA1 activation. Cells were plated the day before testing and induced with 0.5 μg/ml tetracycline as previously described in Story et al., Cell 112:819, 2003. Immediately prior to testing, cells were trypsinized and resuspended in calcium-free DMEM media (Invitrogen). […] Holding currents at −80 mV were used for quantitative analysis of TRPA1 activation and inhibition. […]
(In general: Patch clamp records ionic current or voltage across a cell membrane.)

Experiment [8] deals with T2, TRPA1. The experiment is described as above. Type of experiment: cell-based. Further details: expressed in transfected cells; host or cells: CHO cell line. As to conditions: 10 μM FM1-43 with 100 μM cinnamaldehyde, −80 mV. The method, then:
FM1-43 experiments: The FM1-43 labeling of CHO cells transfected with mTRPA1 was performed as described (Meyers et al., J Neurosci 23:4054, 2003). Briefly, CHO cells were transfected using Fugene (Roche) with mTRPA1-pcDNA5. For mock transfection CHO cells were treated with Fugene, but without any plasmid DNA. 24 hrs after transfection the cells were incubated for 5 min with 200 μM cinnamaldehyde in physiological buffer (consisted of (in mM) 130 NaCl, 3 KCl, 2 MgCl2, 2 CaCl2, 10 HEPES, 10 glucose) at room temperature, followed by 3 min with 10 μM of FM1-43. The cells were then washed thoroughly and imaged. mTRPA1 and hTRPA1-expressing CHO cells were tested in whole cell patch clamp configuration using the PatchXpress (Axon Instruments) for the effect of the FM143 dye on TRPA1 activation. Cells were plated the day before testing and induced with 0.5 μg/ml tetracycline as previously described in Story et al., Cell 112:819, 2003. Immediately prior to testing, cells were trypsinized and resuspended in calcium-free DMEM media (Invitrogen). Recordings were performed in extracellular solution containing (in mM) 2.67 KCl, 1.47 KH2PO4, 0.5 MgCl2, 138 NaCl, 8 Na2HPO4, 5.6 glucose. The intracellular solution contained (in mM) 140 KCl, 10 HEPES, 20 glucose, 10 HEDTA and 1 μM buffered free Calcium. Holding currents at −80 mV were used for quantitative analysis of TRPA1 activation and inhibition. […]
Target sequence in this assay (O75762 whole entry): as the sequence (O75762 whole entry, species assumed) above

The target of experiment [9] is T1, mouse TRPA1. The experiment is described as follows: FLIPR calcium-influx assay, block of cinnamaldehyde activation, CHO cells. Type of experiment: cell-based.
Procedure: Calcium influx was measured using a standard FLIPR assay, data points are the average of 4 wells (˜8,000 cells/well) and error bars show standard error. […] Data was generated using the FLIPR calcium-influx assay, n=3 wells (˜8,000 cells/well) and normalized to the maximal response. Bars show standard error and solid curves are hill equation fits from which EC50 values are derived.
Using FLIPR calcium-influx assay, we screened 43,648 small molecules for their ability to block cinnamaldehyde-activation of human TRPA1 in a CHO cell line.
FLIPR Screen: CHO cells expressing human TRPA1 were plated into 384 well plates at a concentration of ˜8,000 cells/well. Cells were transferred to phosphate-buffered saline (PBS) and loaded with the calcium sensitive dye FLUO-4 using the FLIPR Calcium 3 Assay Kit (Molecular Devices, Sunnyvale, Calif.) 1 hour prior to the assay. Assays were run using the FLIPR2 (Molecular Devices, Sunnyvale, Calif.). All compounds were diluted into PBS from a high concentration DMSO-based stock solution and added during data collection with the FLIPR2 internal pipette head. Final DMSO concentrations never exceeded 0.5%.

Entries after “also recorded” stand apart in the source; their conditions may differ.

T1 sequence (Q8BLA8 whole entry): as the sequence (Q8BLA8 whole entry) above

As for `[Gd+3]` [Gd3+, Gadolinium], on mouse TRPA1 [1] (10 μM Gd3+, -100 mmHg), the “block of TRPA1 currents in response to negative pressure” value is “completely and reversibly blocked”. Moreover, the “block of TRPA1 currents in response to hyperosmolarity” value is “completely blocks” at mouse TRPA1 [1] (10 μM Gd3+, 450 mOsm); “completely and reversibly blocked” on mouse TRPA1 [1] (10 μM Gd3+, 450 mOsm, listed as Gd^3+).
For the compound `CC(C)(CCC(C)(C)NCc1ccccc1O)NCc1ccccc1O` [Compound 40, N,N′-Bis-(2-hydroxybenzyl)-2,5-diamino-2,5-dimethylhexane], the “BK-induced mechanical nociceptive behavior” value in [2] was “very similar results”. Besides, in experiment [3], the “effect on activation or activities of the other thermoTRPs” value is recorded as “little or no effect”. The CFA-induced mechanical hyperalgesia result in [4] is “very similar results”. Moreover, on TRPA1 [5], the “inhibition of TRPA1 activation or function” value was “specifically inhibit TRPA1 activation or function; also recorded: blocks TRPA1”. In experiment [6], the BK-induced heat hyperalgesia result was “very similar results”. In addition, the CFA-induced heat hyperalgesia result in experiment [7] is “very similar results”.
On to `N.N.N.N.N.N.N.N.N.N.N.N.N.N.[Cl-].[Cl-].[Cl-].[Cl-].[Cl-].[Cl-].[O-2].[O-2].[Ru+3].[Ru+3].[Ru+4]` [ruthenium red], for which the “block of mechanosensitive TRPA1 currents upon hyperosmolarity” value on mouse TRPA1 [1] (5 μM ruthenium red, 450 mOsm) was “completely blocked”. In addition, the “block of mechanosensitive TRPA1 currents upon (−) pressure” value on mouse TRPA1 [1] (5 μM ruthenium red, -100 mmHg) is recorded as “completely blocked”.
For `CC12CCC(CC1=O)C2(C)C` (stereo not shown) [camphor], in the experiment with cultured rat DRG neurons, the “block of current response of DRG neurons to (−) pressure” value is listed as “completely blocks; also recorded: fully inhibited”. Further, the “block of current activation of TRPA1 upon (−) pressure in CHO cells” value at mouse TRPA1 [1] (2 mM camphor, −100 mmHg) is recorded as “completely block”.
As to `CCCCN(CCCC)c1ccc(/C=C/c2cc[n+](CCC[N+](CC)(CC)CC)cc2)cc1.[Br-].[Br-]` [FM1-43], the “block of cinnamaldehyde-induced currents in TRPA1-expressing CHO cells” value on mTRPA1 (10 μM FM1-43) is on record as “able to block”. In addition, the “cells in which an inhibition of the current was observed” value at mTRPA1 (10 μM FM1-43 with 100 μM cinnamaldehyde, −80 mV) was 7/8; on TRPA1 [8], 3/4. Besides, the “block in current, on average” value at mTRPA1 (10 μM FM1-43 with 100 μM cinnamaldehyde, average stated for mTRPA1 and hTRPA1 cells together) amounted to 50%.
By EC50 is commonly meant the concentration at which the effect is half-maximal. Take `O=CC=Cc1ccccc1` [cinnamaldehyde]: the EC50 on mouse TRPA1 [9] (control (no compound 18)) worked out at 50 µM; on mouse TRPA1 [9] (with 25 μM compound 18), 220 µM.

Source of the values: patent US20090175882A1, “METHODS AND COMPOSITIONS FOR TREATING HYPERALGESIA” (IRM LLC, priority 2006, published 2009).
